Reference: patent US5231182A, “Method of making certain aryl containing amides” (American Cyanamid Company, priority 1991, dated 1993)
Structures can show the parent of a compound that is named as a salt.

Assays:
[1] = tested on: Endotoxin induced shock and mortality; assay: Endotoxin induced shock and mortality in mice: low dose, chronic mouse endotoxemia; type: in vivo, Male Balb/c mice
From the text: Endotoxin administration produces a shock-like state characterized by vascular permeability changes, hypotension, neutropenia, thrombocytopenia,multiple organ damage and death. The major mediators released after endotoxin injection are TNF (tumor necrosis factor), PAF (platelet activating factor) and […] (interleukin I). PAF administration mimics the signs and symptoms of endotoxin induced shock and death and endotoxin also induces the release of PAF. Therefore, the effects of endotoxin should be blocked with a PAF antagonist.
Male Balb/c mice (approximately 20 g) are obtained from Charles River Laboratories and used after a one-two week acclimation period. Animals are given (ip) test compound dissolved in saline or water (sonicated and heated) at different time intervals prior to and after the ip injection of endotoxin (usually 2 hours before LPS endotoxin, and 3-4 hours after). Sigma E. Coli endotoxin, 0111:B4, phenol extraction, catalog #L2630 is used for these studies.
For the chronic endotoxin shock model, a lower dose of endotoxin is administered (generally 15 to 20 mg/kg i.p). This dose gives an LD80 in two to four days following LPS administration. Test compounds are given 2 hours before LPS and 3-4 hours after on the first day, followed by 3 or 4 consecutive days of BID dosing. The number of survivors in each group is recorded each day for a period of 5 to 7 days.
Effect of Compounds Given i.p. in Low Dose, Chronic Mouse Endoxemia

PAF induced lethality = PAF induced lethality in mice; type: in vivo; details: PAF 150 μg/kg IV
Procedure: PAF given I.V. to mice causes an immediate hypotensive shock leading to death in 1 hour or less. Compounds are given intraperitoneally or P.O. at various times before the PAF challenge. Animals alive after 2 hours are counted and the activity of test compounds expressed as % survival corrected for any control (saline treated) animals which survived the PAF challenge.
Effect of Compound Given I.V. or P.O. in Protecting
Mice from a Lethal Challenge of PAF^a
^a lethal challenge of PAF is 150 μg/kg IV.

PAF receptor = target: T1, PAF receptor (Oryctolagus cuniculus, UniProt G1TEI7); assay: Platelet Activating Factor antagonism in vitro: inhibition of PAF induced platelet aggregation in rabbit platelet rich plasma; type: cell-based, rabbit (New Zealand White); details: dose .00001 M, PAF chall conc 5.0000E-08 M
T1 construct: centrifuged at 800 rpm for 10-15 minutes at room temperature to recover the platelet rich plasma (PRP); endogenous in cells; host or cells: platelets in citrated platelet rich plasma from male New Zealand White rabbits (Oryctolagus cuniculus)
Procedure: Test compounds are evaluated as PAF receptor antagonists in vitro by measuring inhibition of PAF (platelet activating factor) induced platelet aggregation. Platelet aggregation is measured by a modification of the method described in […], et. al., J. Med. Chem., 27 1174, 1984. […] All syringes and pipets are plastic. The blood is gently mixed and immediately centrifuged at 800 rpm for 10-15 minutes at room temperature to recover the platelet rich plasma (PRP). Platelet poor plasma (PPP) is prepared by centrifuging PRP at 2800 rpm for 10 minutes at room temperature. Dilutions (1:3000) of PRP in Isoton® diluent are made and platelet counts are determined on a Coulter Thrombocounter which is standardized with platelet reference standards (Interscience Platelet Control, Portland, Oreg.). PRP platelet counts are adjusted to approximately 400,000-500,000 platelets/μl by the addition of PPP. L-PAF (Platelet Activating Factor) is obtained from Calbiochem. […] All solutions are made up in plastic tubes, stored on ice and protected from heat and light. Solutions are prepared fresh or frozen at -20° C. and used within 48 hours. Incubation mixtures consisted of 400 μl PRP, 50 μl of saline diluent or test compound and 50 μl of PAF agonist. More specifically, 400 μl of PRP is stabilized in a cuvette for 1-2 minutes at 37° C. in the aggregometer to achieve a stable baseline, then 50 μl of saline or test compound is added and incubated for 5 minutes before addition of the challenge concentration of PAF. A submaximal concentration is determined from the dose response curve for PAF for that experiment. In general, the challenge concentration is 5E-8 or IE-7M. Aggregation is monitored for 5 minutes. Samples containing test compound or diluent are run simultaneously for comparison. Test compounds are initially evaluated at a screening concentration of 1E-5M. […] The recording equipment consists of a dual channel Chronolog aggregometer connected to a dual channel 10MV full scale deflection Omniscribe chart recorder (Houston Instruments). The chart recorder is calibrated daily with the use of a suspension of Bio-Rad latex beads (S-X 12 400 mesh) which has a density slightly greater than rabbit PRP. […] These limits defined a full scale deflection. The aggregation traces are analyzed by a digitizing method (C. Kohler and B. Zoltan, J. Pharm. Methods, 12, 113, 1984) with x, y coordinate data stored in a computer file. A suitable program computes parameters of interest such as the magnitude of aggregation. | ^a dose of compound that gives the indicated % inhibition. | ^b the % inhibition of PAF induced platelet aggregation. | ^c the molar concentration of compound that will inhibit 50% of the | platelet aggretation induced by PAF given at the indicated PAF challenge | concentration.

T1 sequence (G1TEI7 1-342): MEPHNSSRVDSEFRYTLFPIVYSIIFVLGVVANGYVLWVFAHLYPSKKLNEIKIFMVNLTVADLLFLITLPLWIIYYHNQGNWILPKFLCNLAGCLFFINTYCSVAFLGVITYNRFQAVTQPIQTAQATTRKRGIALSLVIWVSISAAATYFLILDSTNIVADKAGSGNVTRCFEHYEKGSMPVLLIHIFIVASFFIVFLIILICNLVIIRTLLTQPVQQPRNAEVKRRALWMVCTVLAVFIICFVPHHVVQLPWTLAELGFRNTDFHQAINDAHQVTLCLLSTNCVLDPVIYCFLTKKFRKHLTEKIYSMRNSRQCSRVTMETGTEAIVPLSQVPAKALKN

Row | Structure (SMILES) | % Survival ([1]; day 0, dose 10 mg/kg i.p.) [%] | No Surv./tot. ([1]; day 0, dose 10 mg/kg i.p.) | % Survival ([1]; day 0, dose 20 mg/kg i.p.) [%] | No Surv./tot. ([1]; day 0, dose 20 mg/kg i.p.) | % Survival ([1]; day 1, dose 10 mg/kg i.p.) [%] | No Surv./tot. ([1]; day 1, dose 10 mg/kg i.p.) | % Survival ([1]; day 1, dose 20 mg/kg i.p.) [%] | No Surv./tot. ([1]; day 1, dose 20 mg/kg i.p.) | % Survival ([1]; day 2, dose 10 mg/kg i.p.) [%] | No Surv./tot. ([1]; day 2, dose 10 mg/kg i.p.) | % Survival ([1]; day 2, dose 20 mg/kg i.p.) [%] | No Surv./tot. ([1]; day 2, dose 20 mg/kg i.p.) | % Survival ([1]; day 3, dose 10 mg/kg i.p.) [%] | No Surv./tot. ([1]; day 3, dose 10 mg/kg i.p.) | % Survival ([1]; day 3, dose 20 mg/kg i.p.) [%] | No Surv./tot. ([1]; day 3, dose 20 mg/kg i.p.) | % Survival ([1]; day 4, dose 10 mg/kg i.p.) [%] | No Surv./tot. ([1]; day 4, dose 10 mg/kg i.p.) | % Survival ([1]; day 4, dose 20 mg/kg i.p.) [%] | No Surv./tot. ([1]; day 4, dose 20 mg/kg i.p.) | also measured
1 | CCCCCCCCCCCCCCOc1ccc(CN(C(=O)NC)c2cccc(C[n+]3csc(C)c3)c2)cc1.[Br-] [5-Methyl-3-[[3-[[(methylamino)carbonyl]-[[4-(tetradecyloxy)phenyl]methyl]amino]phenyl]methyl]thiazolium bromide] | 100 | 30/30 | 100 | 30/30 | 80 | 24/30 | 90 | 27/30 | 46 | 14/30 | 23 | 7/30 | 46 | 14/30 | 20 | 6/30 | 46 | 14/30 | 20 | 6/30 | % Survival ([1]; day 5, dose 10 mg/kg i.p.): 46%; No Surv./tot. ([1]; day 5, dose 10 mg/kg i.p.): 14/30; % Survival ([1]; day 5, dose 20 mg/kg i.p.): 20%; No Surv./tot. ([1]; day 5, dose 20 mg/kg i.p.): 6/30; No Surv./tot. ([1]; day 6, dose 10 mg/kg i.p.): 14/30; No Surv./tot. ([1]; day 6, dose 20 mg/kg i.p.): 6/30; % Survival ([1]; day 7, dose 10 mg/kg i.p.): 46%; No Surv./tot. ([1]; day 7, dose 10 mg/kg i.p.): 14/30; % Survival ([1]; day 7, dose 20 mg/kg i.p.): 20%; No Surv./tot. ([1]; day 7, dose 20 mg/kg i.p.): 6/30
2 | CCCCCCCCCCCCCCOc1ccc(CC(=O)Nc2ccc(C[n+]3csc(C)c3)cc2)cc1.[Br-] [5-Methyl-3-[[4-[[[4-(tetradecyloxy)phenyl]acetyl]amino]phenyl]methyl]thiazolium bromide] | 100 | 30/30 | 100 | 30/30 | 100 | 30/30 | 90 | 27/30 | 80 | 24/30 | 60 | 18/30 | 80 | 24/30 | 60 | 18/30 | 80 | 24/30 | 60 | 18/30 | % Survival ([1]; day 5, dose 10 mg/kg i.p.): 80%; No Surv./tot. ([1]; day 5, dose 10 mg/kg i.p.): 24/30; % Survival ([1]; day 5, dose 20 mg/kg i.p.): 60%; No Surv./tot. ([1]; day 5, dose 20 mg/kg i.p.): 18/30; % Survival ([1]; day 6, dose 10 mg/kg i.p.): 80%; No Surv./tot. ([1]; day 6, dose 10 mg/kg i.p.): 24/30; % Survival ([1]; day 6, dose 20 mg/kg i.p.): 56%; No Surv./tot. ([1]; day 6, dose 20 mg/kg i.p.): 17/30; % Survival (PAF induced lethality; P.O. 5 mg/kg): 32%; % Survival (PAF induced lethality; P.O. 20 mg/kg): 32%; % INH (inhibition of PAF induced platelet aggregation) (PAF receptor): 100.0%
3 | CCCCCCCCCCCCCCOc1ccc(CC(=O)Nc2cccc(-n3ccnc3C)c2)cc1 [N-[3-(2-Methyl-1H-imidazol-1-yl)phenyl-4-(tetradecyloxy)benzeneacetamidemonohydrochloride] | – | – | – | – | – | – | – | – | – | – | – | – | – | – | – | – | – | – | – | – | % INH (inhibition of PAF induced platelet aggregation) (PAF receptor; monohydrochloride): 39.0%
